Measurements: ChEMBL document CHEMBL1201862, “PubChem BioAssay data set” (2004)
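Values below derive from 48-hour exposures of cells grown in 96-well plates, with endpoints linearly interpolated between the two concentrations bracketing the appropriate inhibition level. At the GI50, growth is halved.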 Active and inactive are the calls of the source. Cut-off read from the data, not from the text of the source: active = GI50 up to about 1.1 µM and inactive = higher.

Key:
Assay in all cases: growth of human tumour cells (NCI), 48 h
[1] = tested on: A549
[2] = tested on: CCRF-CEM
[3] = tested on: DLD-1
[4] = tested on: DU-145
[5] = tested on: HCC 2998
[6] = tested on: HL-60
[7] = tested on: HOP-92
[8] = tested on: Hs-578T
[9] = tested on: MDA-MB-231
[10] = tested on: Malme-3M
[11] = tested on: NCI-H460
[12] = tested on: NCI/ADR-RES
[13] = tested on: OVCAR-5
[14] = tested on: PC-3
[15] = tested on: SK-OV-3
[16] = tested on: SN12C
[17] = tested on: SNB-19
[18] = tested on: SW-620
[19] = tested on: UACC-62
[20] = tested on: CAKI-1

Measured: GI50

O=C(O)CC(NC(=O)CP(=O)(O)O)C(=O)O (stereo not drawn)
inactive: [1] 47.4 µM | [2] 682 µM | [3] 66.4 µM | [4] 933 µM | [5] 7930 µM | [6] 283 µM | [7] 424 µM | [8] 3640 µM | [9] 1360 µM | [10] 2360 µM | [11] 25.4 µM | [12] 1020 µM | [13] 6120 µM | [14] 1640 µM | [15] 5730 µM | [16] 724 µM | [17] 103 µM | [18] 285 µM | [19] 79.6 µM

O=C1C(Cl)=C(Cl)C(=O)N1c1ccc(F)cc1 [FLUOROIMIDE]
inactive: [1] 97.9 µM | [20] 13.7 µM | [2] 2.75 µM | [3] 18.2 µM | [4] 37.9 µM | [5] 19.6 µM | [6] 1.89 µM | [7] 17.6 µM | [8] 28.1 µM | [9] 17.1 µM | [10] 17.2 µM | [11] > 83.6 µM | [13] 20.9 µM | [14] 16.3 µM | [15] 28.6 µM | [16] 19.1 µM | [17] > 58.3 µM | [18] 16.9 µM | [19] 14.7 µM

CCSc1nc(N2CCCC2)s[s+]1.[O-][Cl+3]([O-])([O-])[O-]
active: [2] 0.764 µM | [11] 0.225 µM | [19] 0.684 µM
inactive: [1] 18.9 µM | [20] 43 µM | [3] 85.3 µM | [4] > 100 µM | [5] 73.6 µM | [6] 2.92 µM | [7] 64.7 µM | [8] 40.6 µM | [9] 44.6 µM | [10] 53.3 µM | [12] > 100 µM | [13] > 100 µM | [14] 31.7 µM | [15] 84.1 µM | [16] 46.1 µM | [17] > 100 µM | [18] 34.4 µM
